Reference: ChEMBL document CHEMBL5352506, “The Zinc-Binding Group Effect: Lessons from Non-Hydroxamic Acid Vorinostat Analogs” (J Med Chem, 2023)

Columns and labels:
[1] = target: Histone deacetylase (HDAC1 and HDAC2) (Homo sapiens, UniProt Q13547+Q92769); experiment: Inhibition of HDAC1/2 in human K562 nuclear extraction; type: cell-free
Histone deacetylase 5 = Histone deacetylase 5 (Homo sapiens, UniProt Q9UQL6); experiment: Inhibition of human recombinant HDAC5
Histone deacetylase 4 = Histone deacetylase 4 (Homo sapiens, UniProt P56524); experiment: Inhibition of human recombinant HDAC4
Histone deacetylase 11 = target: T1, Histone deacetylase 11 (Homo sapiens, UniProt Q96DB2); experiment: Inhibition of human recombinant HDAC11
T1 sequence (Q96DB2 whole entry): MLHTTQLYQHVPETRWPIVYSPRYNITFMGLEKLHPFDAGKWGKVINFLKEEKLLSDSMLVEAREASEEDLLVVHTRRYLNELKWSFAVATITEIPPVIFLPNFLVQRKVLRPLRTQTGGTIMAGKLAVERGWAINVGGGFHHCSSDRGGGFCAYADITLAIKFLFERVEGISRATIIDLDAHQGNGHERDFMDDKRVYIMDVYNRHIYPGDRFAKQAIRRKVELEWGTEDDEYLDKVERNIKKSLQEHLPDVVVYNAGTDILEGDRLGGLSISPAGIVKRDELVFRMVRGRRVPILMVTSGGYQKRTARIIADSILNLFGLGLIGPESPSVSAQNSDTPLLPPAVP

[2] = target: T2, Polyamine deacetylase HDAC10 (Homo sapiens, UniProt Q969S8); experiment: Inhibition of human recombinant HDAC10
T2 sequence (Q969S8 whole entry): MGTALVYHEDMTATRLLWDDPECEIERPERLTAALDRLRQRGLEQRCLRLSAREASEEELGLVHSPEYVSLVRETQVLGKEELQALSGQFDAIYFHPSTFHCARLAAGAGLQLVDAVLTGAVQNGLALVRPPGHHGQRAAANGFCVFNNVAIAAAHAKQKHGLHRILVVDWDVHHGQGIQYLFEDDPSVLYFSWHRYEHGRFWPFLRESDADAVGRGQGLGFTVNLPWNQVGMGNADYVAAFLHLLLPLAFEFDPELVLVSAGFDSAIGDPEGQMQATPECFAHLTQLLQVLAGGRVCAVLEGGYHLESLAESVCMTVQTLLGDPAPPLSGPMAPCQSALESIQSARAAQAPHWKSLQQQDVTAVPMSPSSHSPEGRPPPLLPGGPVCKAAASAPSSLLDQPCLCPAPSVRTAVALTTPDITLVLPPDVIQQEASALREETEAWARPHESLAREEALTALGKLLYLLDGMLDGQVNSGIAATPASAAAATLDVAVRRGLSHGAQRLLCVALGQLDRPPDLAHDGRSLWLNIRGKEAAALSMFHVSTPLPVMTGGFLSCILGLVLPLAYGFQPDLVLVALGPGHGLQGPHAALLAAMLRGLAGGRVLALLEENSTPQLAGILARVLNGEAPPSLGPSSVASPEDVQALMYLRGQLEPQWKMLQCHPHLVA

[3] = target: T3, Protein deacetylase HDAC6 (Homo sapiens, UniProt Q9UBN7); experiment: Inhibition of human recombinant HDAC6
T3 sequence (Q9UBN7 whole entry): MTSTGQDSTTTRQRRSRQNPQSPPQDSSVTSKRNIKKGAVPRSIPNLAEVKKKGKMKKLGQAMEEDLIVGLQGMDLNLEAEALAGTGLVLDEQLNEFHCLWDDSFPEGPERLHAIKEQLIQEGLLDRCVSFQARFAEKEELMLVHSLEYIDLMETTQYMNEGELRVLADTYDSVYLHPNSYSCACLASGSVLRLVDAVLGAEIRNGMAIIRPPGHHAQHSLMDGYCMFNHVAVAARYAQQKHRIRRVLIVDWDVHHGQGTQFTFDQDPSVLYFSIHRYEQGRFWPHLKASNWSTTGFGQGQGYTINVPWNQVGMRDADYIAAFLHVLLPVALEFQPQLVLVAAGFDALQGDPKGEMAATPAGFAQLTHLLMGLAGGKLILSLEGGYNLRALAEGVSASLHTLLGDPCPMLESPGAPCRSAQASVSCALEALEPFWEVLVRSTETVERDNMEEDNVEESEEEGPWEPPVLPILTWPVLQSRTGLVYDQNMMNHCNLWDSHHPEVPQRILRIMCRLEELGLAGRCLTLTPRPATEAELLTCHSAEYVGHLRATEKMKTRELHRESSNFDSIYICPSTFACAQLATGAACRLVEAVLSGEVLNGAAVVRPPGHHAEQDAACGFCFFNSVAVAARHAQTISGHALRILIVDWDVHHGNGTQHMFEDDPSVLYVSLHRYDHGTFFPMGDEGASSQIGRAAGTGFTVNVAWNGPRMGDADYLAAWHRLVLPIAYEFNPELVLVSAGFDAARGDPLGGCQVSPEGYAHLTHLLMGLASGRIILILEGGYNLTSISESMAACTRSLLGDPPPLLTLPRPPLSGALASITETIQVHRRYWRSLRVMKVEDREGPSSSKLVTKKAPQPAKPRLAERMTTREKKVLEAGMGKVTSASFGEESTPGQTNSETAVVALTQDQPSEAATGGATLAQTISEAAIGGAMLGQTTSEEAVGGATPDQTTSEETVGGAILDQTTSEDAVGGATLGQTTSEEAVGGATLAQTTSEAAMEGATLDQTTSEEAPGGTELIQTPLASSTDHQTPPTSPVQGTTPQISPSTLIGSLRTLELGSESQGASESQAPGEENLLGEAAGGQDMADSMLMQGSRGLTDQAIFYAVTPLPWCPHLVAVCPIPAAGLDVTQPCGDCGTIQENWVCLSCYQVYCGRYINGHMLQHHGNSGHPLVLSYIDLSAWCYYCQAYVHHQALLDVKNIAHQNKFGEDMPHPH

Histone deacetylase 8 = target: T4, Histone deacetylase 8 (Homo sapiens, UniProt Q9BY41); experiment: Inhibition of human recombinant HDAC8
T4 sequence (Q9BY41 whole entry): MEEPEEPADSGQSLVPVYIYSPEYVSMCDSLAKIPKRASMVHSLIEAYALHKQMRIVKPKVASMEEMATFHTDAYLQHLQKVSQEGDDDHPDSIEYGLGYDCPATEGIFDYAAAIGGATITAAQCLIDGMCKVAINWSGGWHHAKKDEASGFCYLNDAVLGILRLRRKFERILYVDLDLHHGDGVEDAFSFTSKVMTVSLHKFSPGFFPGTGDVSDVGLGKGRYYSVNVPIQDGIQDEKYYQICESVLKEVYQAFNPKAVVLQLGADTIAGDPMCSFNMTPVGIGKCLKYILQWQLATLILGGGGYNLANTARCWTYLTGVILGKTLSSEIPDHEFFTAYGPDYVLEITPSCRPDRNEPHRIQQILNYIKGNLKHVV

Histone deacetylase 9 = Histone deacetylase 9 (Homo sapiens, UniProt Q9UKV0); experiment: Inhibition of human recombinant HDAC9
Histone deacetylase [4] = type: cell-based, Homo sapiens; settings: hela
Histone deacetylase 1 = Histone deacetylase 1 (Homo sapiens, UniProt Q13547); experiment: Inhibition of HDAC1 (unknown origin); settings: pooled result: one value given for 7 cell lines, strains, targets or settings
Histone deacetylase 2 = Histone deacetylase 2 (Homo sapiens, UniProt Q92769)
Histone deacetylase 3 = Histone deacetylase 3 (Homo sapiens, UniProt O15379); experiment: Inhibition of human recombinant HDAC3
Histone deacetylase 7 = target: T5, Histone deacetylase 7 (Homo sapiens, UniProt Q8WUI4); experiment: Inhibition of human recombinant HDAC7
T5 sequence (Q8WUI4 whole entry): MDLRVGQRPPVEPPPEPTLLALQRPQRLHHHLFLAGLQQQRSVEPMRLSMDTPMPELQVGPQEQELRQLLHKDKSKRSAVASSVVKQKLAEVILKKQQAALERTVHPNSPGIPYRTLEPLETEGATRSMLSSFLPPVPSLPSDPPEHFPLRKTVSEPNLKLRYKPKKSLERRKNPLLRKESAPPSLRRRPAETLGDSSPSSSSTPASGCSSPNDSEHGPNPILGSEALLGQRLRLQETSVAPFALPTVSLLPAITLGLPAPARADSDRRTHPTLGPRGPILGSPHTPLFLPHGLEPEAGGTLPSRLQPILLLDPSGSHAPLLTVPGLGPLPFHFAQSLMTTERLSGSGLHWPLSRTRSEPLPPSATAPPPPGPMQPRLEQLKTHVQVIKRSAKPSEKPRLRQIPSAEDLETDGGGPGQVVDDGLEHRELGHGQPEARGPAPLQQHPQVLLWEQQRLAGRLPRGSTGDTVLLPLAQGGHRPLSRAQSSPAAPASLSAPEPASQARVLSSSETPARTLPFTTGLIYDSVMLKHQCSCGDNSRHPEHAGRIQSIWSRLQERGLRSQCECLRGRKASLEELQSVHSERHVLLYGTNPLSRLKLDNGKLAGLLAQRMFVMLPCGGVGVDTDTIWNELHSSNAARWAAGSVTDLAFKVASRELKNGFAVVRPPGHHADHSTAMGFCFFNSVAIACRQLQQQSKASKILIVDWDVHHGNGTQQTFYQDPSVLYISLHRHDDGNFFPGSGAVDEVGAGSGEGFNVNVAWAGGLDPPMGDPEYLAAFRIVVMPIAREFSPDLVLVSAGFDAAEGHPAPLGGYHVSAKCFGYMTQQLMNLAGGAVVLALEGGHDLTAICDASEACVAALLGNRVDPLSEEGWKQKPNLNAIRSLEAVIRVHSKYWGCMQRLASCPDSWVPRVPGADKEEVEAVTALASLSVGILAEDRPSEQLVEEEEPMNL

Histone deacetylase [5] = experiment: Inhibition of HDAC (unknown origin); type: protein assay, Homo sapiens

Chain of Histone deacetylase 5 (Q9UQL6 whole entry): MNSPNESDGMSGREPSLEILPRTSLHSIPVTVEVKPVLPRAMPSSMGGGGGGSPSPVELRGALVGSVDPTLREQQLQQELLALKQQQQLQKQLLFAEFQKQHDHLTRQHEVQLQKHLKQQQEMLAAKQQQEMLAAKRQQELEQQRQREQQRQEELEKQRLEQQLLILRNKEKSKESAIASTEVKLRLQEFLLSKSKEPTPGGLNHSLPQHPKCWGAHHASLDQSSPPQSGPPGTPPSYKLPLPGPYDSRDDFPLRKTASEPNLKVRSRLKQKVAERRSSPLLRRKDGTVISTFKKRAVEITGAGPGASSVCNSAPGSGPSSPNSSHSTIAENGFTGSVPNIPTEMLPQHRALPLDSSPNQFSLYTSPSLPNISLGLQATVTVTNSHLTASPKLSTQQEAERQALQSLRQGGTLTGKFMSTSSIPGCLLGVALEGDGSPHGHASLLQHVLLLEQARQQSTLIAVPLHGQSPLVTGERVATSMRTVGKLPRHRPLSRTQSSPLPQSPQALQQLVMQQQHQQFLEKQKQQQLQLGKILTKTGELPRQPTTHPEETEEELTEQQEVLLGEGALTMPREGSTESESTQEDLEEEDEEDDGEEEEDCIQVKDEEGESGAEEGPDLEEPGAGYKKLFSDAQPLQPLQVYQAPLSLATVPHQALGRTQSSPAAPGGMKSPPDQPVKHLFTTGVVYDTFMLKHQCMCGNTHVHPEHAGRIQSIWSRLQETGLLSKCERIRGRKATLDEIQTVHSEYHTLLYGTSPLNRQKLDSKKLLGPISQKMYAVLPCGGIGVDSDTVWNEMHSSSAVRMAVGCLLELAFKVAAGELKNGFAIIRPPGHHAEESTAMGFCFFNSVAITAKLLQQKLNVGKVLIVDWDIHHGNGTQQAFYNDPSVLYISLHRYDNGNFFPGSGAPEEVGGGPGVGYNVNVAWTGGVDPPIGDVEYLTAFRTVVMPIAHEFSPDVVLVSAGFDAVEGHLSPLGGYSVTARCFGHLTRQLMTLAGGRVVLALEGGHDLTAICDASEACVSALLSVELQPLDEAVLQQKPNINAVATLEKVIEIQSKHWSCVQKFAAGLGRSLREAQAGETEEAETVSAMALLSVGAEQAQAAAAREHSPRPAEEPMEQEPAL
Chain of Histone deacetylase 4 (P56524 whole entry): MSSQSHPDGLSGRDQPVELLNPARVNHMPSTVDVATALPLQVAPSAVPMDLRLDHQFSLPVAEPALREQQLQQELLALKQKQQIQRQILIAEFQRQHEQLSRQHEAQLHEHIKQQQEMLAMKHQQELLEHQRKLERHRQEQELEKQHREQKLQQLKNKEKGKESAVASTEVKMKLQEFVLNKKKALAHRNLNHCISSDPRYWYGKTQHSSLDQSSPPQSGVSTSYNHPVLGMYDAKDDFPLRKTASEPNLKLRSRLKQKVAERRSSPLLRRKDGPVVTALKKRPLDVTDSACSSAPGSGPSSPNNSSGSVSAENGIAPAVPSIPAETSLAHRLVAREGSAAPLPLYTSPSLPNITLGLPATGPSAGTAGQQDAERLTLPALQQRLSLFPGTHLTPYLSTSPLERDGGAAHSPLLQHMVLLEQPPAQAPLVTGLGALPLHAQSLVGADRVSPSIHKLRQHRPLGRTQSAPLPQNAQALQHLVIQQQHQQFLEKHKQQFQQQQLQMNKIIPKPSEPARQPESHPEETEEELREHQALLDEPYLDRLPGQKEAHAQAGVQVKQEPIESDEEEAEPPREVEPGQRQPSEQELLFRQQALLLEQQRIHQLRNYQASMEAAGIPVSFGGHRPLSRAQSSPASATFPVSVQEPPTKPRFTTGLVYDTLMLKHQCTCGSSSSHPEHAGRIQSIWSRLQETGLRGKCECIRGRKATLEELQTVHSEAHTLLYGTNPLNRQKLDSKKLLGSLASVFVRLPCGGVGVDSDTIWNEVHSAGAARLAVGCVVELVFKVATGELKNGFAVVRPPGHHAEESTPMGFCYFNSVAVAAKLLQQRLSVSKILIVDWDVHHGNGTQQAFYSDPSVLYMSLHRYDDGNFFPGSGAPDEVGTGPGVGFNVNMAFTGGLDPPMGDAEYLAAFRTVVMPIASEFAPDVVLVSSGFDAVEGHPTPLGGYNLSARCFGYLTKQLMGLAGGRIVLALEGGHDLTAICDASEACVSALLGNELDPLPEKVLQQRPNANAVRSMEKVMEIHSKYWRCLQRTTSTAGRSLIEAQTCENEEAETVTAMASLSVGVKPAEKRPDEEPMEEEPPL
Chain of Histone deacetylase 2 (Q92769 whole entry): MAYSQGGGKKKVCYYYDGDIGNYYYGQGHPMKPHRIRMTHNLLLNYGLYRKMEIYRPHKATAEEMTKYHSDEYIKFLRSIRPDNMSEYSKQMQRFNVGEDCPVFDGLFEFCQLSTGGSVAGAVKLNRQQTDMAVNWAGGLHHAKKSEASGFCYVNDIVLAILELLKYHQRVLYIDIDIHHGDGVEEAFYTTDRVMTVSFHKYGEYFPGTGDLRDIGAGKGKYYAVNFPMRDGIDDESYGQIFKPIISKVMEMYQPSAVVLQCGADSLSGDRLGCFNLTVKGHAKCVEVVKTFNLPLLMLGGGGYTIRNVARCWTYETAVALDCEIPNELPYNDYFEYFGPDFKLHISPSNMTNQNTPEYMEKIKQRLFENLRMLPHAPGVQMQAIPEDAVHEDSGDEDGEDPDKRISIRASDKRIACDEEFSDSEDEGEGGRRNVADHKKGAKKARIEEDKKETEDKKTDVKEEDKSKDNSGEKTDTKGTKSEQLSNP
Chain of Histone deacetylase 9 (Q9UKV0 whole entry): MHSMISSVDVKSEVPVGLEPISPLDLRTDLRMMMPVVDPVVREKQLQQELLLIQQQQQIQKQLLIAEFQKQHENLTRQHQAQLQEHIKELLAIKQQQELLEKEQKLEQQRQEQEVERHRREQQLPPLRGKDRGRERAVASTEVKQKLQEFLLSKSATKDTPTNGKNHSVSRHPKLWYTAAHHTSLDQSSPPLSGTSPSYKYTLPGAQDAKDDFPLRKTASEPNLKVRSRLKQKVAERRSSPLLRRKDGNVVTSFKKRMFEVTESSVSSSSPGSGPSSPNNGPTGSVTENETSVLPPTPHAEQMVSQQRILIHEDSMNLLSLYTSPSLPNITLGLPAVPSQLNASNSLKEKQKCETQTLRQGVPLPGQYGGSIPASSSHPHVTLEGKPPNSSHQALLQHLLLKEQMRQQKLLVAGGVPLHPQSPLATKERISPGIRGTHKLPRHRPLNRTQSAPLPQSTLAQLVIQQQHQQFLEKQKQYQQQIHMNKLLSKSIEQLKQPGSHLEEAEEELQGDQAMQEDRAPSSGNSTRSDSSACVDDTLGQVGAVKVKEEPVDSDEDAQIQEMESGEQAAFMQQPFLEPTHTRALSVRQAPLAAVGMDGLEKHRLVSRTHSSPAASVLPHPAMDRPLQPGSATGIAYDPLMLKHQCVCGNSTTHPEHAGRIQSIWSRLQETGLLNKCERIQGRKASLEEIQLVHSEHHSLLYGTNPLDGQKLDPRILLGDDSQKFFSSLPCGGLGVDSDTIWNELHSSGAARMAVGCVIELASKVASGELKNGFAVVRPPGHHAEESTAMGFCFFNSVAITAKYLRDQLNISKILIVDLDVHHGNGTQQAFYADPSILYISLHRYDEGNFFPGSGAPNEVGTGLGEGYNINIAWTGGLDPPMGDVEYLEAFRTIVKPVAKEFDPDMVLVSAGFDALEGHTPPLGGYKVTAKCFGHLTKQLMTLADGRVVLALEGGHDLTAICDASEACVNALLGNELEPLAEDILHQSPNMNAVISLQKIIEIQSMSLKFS
Chain of Histone deacetylase 3 (O15379 whole entry): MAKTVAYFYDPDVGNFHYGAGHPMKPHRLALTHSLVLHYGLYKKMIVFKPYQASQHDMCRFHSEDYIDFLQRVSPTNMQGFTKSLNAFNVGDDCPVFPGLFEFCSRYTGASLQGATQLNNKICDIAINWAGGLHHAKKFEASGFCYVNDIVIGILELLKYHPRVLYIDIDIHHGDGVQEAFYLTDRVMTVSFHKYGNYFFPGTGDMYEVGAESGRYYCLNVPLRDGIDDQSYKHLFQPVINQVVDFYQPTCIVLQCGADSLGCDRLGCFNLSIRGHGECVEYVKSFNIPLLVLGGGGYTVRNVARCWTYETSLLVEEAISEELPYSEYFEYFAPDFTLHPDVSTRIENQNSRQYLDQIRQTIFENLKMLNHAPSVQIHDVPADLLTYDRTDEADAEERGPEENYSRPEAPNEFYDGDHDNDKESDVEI
Chain of Histone deacetylase 1 (Q13547 whole entry): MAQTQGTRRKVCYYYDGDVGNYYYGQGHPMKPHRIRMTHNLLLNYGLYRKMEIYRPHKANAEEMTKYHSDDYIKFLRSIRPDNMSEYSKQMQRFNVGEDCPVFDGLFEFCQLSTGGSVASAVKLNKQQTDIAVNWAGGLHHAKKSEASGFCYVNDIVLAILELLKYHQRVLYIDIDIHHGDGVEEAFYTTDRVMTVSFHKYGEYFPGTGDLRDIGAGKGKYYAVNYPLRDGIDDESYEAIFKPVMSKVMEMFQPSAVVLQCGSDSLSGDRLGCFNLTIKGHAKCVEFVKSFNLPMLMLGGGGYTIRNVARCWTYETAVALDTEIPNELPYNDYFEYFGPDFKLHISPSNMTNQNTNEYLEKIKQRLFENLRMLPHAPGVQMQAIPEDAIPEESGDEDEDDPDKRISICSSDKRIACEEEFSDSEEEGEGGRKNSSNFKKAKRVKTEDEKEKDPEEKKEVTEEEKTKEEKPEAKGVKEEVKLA

Structure (SMILES): CNC(=O)C(=O)CCCCCCOc1ccc(-c2ccccc2)cc1
- IC50 [1]: 0.11 µM

Structure (SMILES): O=C(O)CNC(=O)C(=O)CCCCCCOc1ccc(-c2ccccc2)cc1
- IC50 [1]: > 50 µM

Structure (SMILES): NC(=O)C(=O)CCCCCCOc1ccc(-c2ccccc2)cc1
- IC50 [1]: > 50 µM

Structure (SMILES): O=C(CCCCCCC(=O)C(F)(F)F)Nc1ccccc1
- IC50 (Histone deacetylase 5): 0.04 µM
- IC50 (Histone deacetylase 4): 0.04 µM
- IC50 (Histone deacetylase 11): 100 µM
- IC50 [2]: 19 µM
- IC50 [3]: 2.2 µM
- IC50 (Histone deacetylase 8): 1.7 µM
- IC50 (Histone deacetylase 9): 5.9 µM

Structure (SMILES): CN(C)C(=O)C(=O)CCCCCCOc1ccc(-c2ccccc2)cc1
- IC50 [1]: > 5 µM

Structure (SMILES): O=C(CCCCCCNCCS)Nc1ccccc1
- IC50 (Histone deacetylase [4]): > 100 µM

Structure (SMILES): COc1cccc(NC(=O)CCCCCC(=O)Nc2ccccc2)c1
- IC50 (Histone deacetylase [4]): > 1000 µM

Structure (SMILES): CNC(=O)/C(CCCCCCC(=O)Nc1ccccc1)=N\O
- IC50 (Histone deacetylase 1): 22 µM

Structure (SMILES): O=C(CO)NCCCCCC(=O)Nc1ccccc1
- IC50 (Histone deacetylase [4]): > 100 µM

Structure (SMILES): CN(C)CCNC(=O)C(=O)CCCCCCOc1ccc(-c2ccccc2)cc1
- IC50 [1]: > 50 µM

Structure (SMILES): CCNC(=O)C(=O)CCCCCCOc1ccc(-c2ccccc2)cc1
- IC50 [1]: 4.9 µM

Structure (SMILES): NCC(=O)NCCCCCC(=O)Nc1ccccc1
- IC50 (Histone deacetylase [4]): > 100 µM

Structure (SMILES): C[Si](O)(O)CCCCCCC(=O)Nc1ccccc1
- IC50 (Histone deacetylase 5): > 100 µM
- IC50 (Histone deacetylase 4): > 100 µM
- IC50 (Histone deacetylase 2): 6 µM
- IC50 (Histone deacetylase 3): 0.6 µM
- IC50 (Histone deacetylase 7): > 100 µM
- IC50 (Histone deacetylase 11): 57 µM
- IC50 [2]: 5 µM
- IC50 [3]: 18 µM
- IC50 (Histone deacetylase 8): 27 µM

Structure (SMILES): C[C@@H](O)C(=O)CCCCCCC(=O)Nc1ccccc1
- IC50 (Histone deacetylase [4]): 8.9 µM
- IC50 [3]: > 300 µM
- IC50 (Histone deacetylase [5]): > 33 µM

Structure (SMILES): C[C@H](O)C(=O)CCCCCCC(=O)Nc1ccccc1
- IC50 (Histone deacetylase [4]): 77.1 µM
- IC50 [3]: > 300 µM
